Measurements reported in patent US11279703B2, “Fused pyrimidine compounds as BRD4 and JAK2 dual inhibitors and methods for use thereof” (APTOSE BIOSCIENCES INC., priority 2016, dated 2022).

target: BRD4-BD1 (Homo sapiens (Human), UniProt O60885); assay: AlphaLisa bromodomain binding assay, BRD4-BD1; details: Table 1; read-out: BRD4 IC50
Description: An AlphaLisa assay was used to observe bromodomain binding and measure IC50s for the compounds disclosed herein. An AlphaLisa assay is a bead-based assay used to detect interactions between bromodomains and polyacetylated histone peptides. Donor and acceptor beads bound to target and ligand are brought into proximity by this protein-protein interaction.
Equipment Required • 1. […] Plate centrifuge • 3. Plate shaker • 4. […] Single channel and multi-channel pipettes • 6. Microplate reader (Pherastar)
Stock and Final Assay Concentrations (FAC) • 1. All reference and test compounds are made at a concentration of 10 mM in DMSO. Compounds are serially diluted in DMSO and a FAC starting from 10 μM to 10 point 3 fold serial dilutions is arrived. FAC of DMSO is 1%. • 2. Enzyme stock and FAC
Biotinylated substrate (Acetylated histone H4, biotinylated substrate—cat no. AS64989-025, Anaspec) stock and FAC
• 4. Acceptor and donor beads stock and FAC
Buffers • For the enzyme and substrate dilution following buffer is used (for 50 ml) • HEPES: 50 mM 2.5 ml • NaCl: 25 mM 1.25 ml • DTT: 10 mM 0.05 ml • BSA: 0.1% 0.05 g • MilliQ water: 45.7 ml • For dilution of acceptor and donor beads AlphaLISA 5× epigenetics Buffer Perkin Elmer (Cat: AL008C) is used at 1× concentration.
Procedure • 1. […] Tap the plate gently • 3. […] Cover with plate sealer • 5. […] Incubate the plate at room temperature for 10 minutes • 7. Add 10 μl of the substrate • 8. Cover with plate sealer • 9. […] Cover with plate sealer • 14. […] Cover with plate sealer • 18.
The percent inhibition is calculated in the excel analysis template and the IC50 values are subsequently determined using a sigmoidal dose-response curve (variable slope) using GraphPad Prism® 5 software.

IC50 [nM]	SMILES
6	CC(C)(C)S(=O)(=O)Nc1cc(-n2ccc3cnc(Nc4ccc(N5CCNCC5)c(F)c4)nc32)ccc1F [drawing 50]
94	CN1CCC(NC(=O)c2ccc(Nc3ncc4ccn(-c5ccc(F)c(NS(=O)(=O)C(C)(C)C)c5)c4n3)cc2F)CC1 [drawing 47]
63	CN(C)C1CCN(c2ccc(Nc3ncc4ccn(-c5ccc(F)c(NS(=O)(=O)C(C)(C)C)c5)c4n3)cc2F)CC1 [drawing 48]
94	CC(C)(C)S(=O)(=O)Nc1cccc(Nc2nc(NC3CCNCC3)nc3sccc23)c1 [drawing 49]

same assay, conditions: Table 2; read-out: BRD4 IC50

IC50 [nM]	SMILES
2600	CC(C)(C)S(=O)(=O)N1CCc2ccc(Nc3nc(NC4CCNC4)nc4sccc34)cc21 (centres unmarked) [drawing 58]
3200	CC(C)(C)S(=O)(=O)N1CCc2ccc(Nc3nc(NC4CCOC4)nc4sccc34)cc21 (centres unmarked)
1200	CC(C)(C)S(=O)(=O)Nc1cccc(Nc2nc(NCC3CCNCC3)nc3sccc23)c1 [drawing 53]
388	CN1CCN(c2ccc(Nc3nc(Nc4cccc(NS(=O)(=O)C(C)(C)C)c4)c4ccsc4n3)cc2)CC1 [drawing 52]
399	O=C(NC1CC1)c1ccn(-c2nc(NC3CCNCC3)nc3sccc23)c1 [drawing 60]
450	CN1CCC(Nc2nc(-n3ccc(C(=O)NC4CC4)c3)c3ccsc3n2)CC1 [drawing 59]
94	CC(C)(C)S(=O)(=O)Nc1cccc(Nc2nc(NC3CCNCC3)nc3sccc23)c1 [drawing 51]
1700	CC(C)(C)S(=O)(=O)Nc1cccc(Nc2nc(NC3CCNC3)nc3sccc23)c1 (centres unmarked) [drawing 54]
1000	CC(C)(C)S(=O)(=O)N1CCc2ccc(Nc3nc(NCC4CCNCC4)nc4sccc34)cc21 [drawing 56]
160	CN1CCC(Nc2nc(Nc3ccc4c(c3)N(S(=O)(=O)C(C)(C)C)CC4)c3ccsc3n2)CC1 [drawing 55]

same assay, conditions: Table 5; read-out: BRD4 IC50

IC50 [nM]	SMILES
220	CN1CCN(c2ccc(Nc3ncc4ccn(-c5cccc(NS(=O)(=O)C(C)(C)C)c5)c4n3)cc2)CC1 [drawing 73]

same assay, conditions: Table 6; read-out: BRD4(1) IC50

SMILES	IC50 [nM]
CNCCNc1ncc2c(-c3cccc(-c4c(C)noc4C)c3)cn(C)c2n1	7500
CC(C)(C)S(=O)(=O)N1CCc2ccc(Nc3nc(NC4CCNC4)nc4sccc34)cc21 (centres unmarked) [drawing 217]	2750
COc1ccc(Nc2ncc(-n3ccc4c3CCNC4=O)cn2)cc1	9740
Cc1noc(C)c1-c1ccc2nc(N)sc2c1	4890
CN1CCN(c2ccc(Nc3nc4c(c(Nc5ccc6c(c5)N(S(=O)(=O)C(C)(C)C)CC6)n3)COC4)cc2)CC1	2390
CC(C)(C)S(=O)(=O)Nc1cccc(Nc2nc(NC3CCNC3)nc3sccc23)c1 (centres unmarked) [drawing 222]	2380
CC(C)(C)S(=O)(=O)N1CCc2ccc(Nc3nc(NCC4CCNCC4)nc4sccc34)cc21 [drawing 218]	2170
CC1(C)CN(Cc2ccccc2)CCC1Nc1nc(Nc2cccc(NS(=O)(=O)C(C)(C)C)c2)c2ccsc2n1 (centres unmarked)	7500
CN1CCN(c2ccc(Nc3ncc4ccn(-c5cccc(NS(=O)(=O)C(C)(C)C)c5)c4n3)cc2)CC1 [drawing 288]	5010
CNCCNc1ncc2c(-c3cccc(-c4c(C)noc4C)c3)c[nH]c2n1	3230
Cc1noc(C)c1-c1cccc(-c2cn(C)c3nc(NC4CCNCC4)ncc23)c1	4400
CN1CCN(c2ccc(Nc3nc(Nc4ccc5c(c4)N(S(=O)(=O)C(C)(C)C)CC5)c4ccsc4n3)cc2)CC1	4560
CN1CCN2c3c(F)cc(Nc4ncc5scc(-c6cccc(NS(=O)(=O)C(C)(C)C)c6)c5n4)cc3CC2C1 (centres unmarked)	1800
Cc1cnc(Nc2ccc(N3CCN(C)CC3)cc2)cc1Nc1cccc(NS(=O)(=O)C(C)(C)C)c1	6310
CNc1ncc2c(-c3cccc(-c4c(C)noc4C)c3)c[nH]c2n1	10000
Cc1noc(C)c1-c1cccc(-c2c[nH]c3nc(N4CCN(C)CC4)ncc23)c1	7190
CN1CCN(c2ccc(Nc3nc4c(c(Nc5cccc(NS(=O)(=O)C(C)(C)C)c5)n3)CCNC4)cc2)CC1	3200
O=C1NCCc2c1ccn2-c1cnc(Nc2ccc(F)cc2)nc1	11200
CN1CCN(c2cccc(Nc3nc(Nc4cccc(NS(=O)(=O)C(C)(C)C)c4)c4ccsc4n3)c2)CC1	5020
CN1CCC(Nc2nc3c(c(Nc4cccc(NS(=O)(=O)C(C)(C)C)c4)n2)COC3)CC1	2320
CC1=NCC(C)=C1C1CCCC(c2c[nH]c3nc(N4CCNCC4)ncc23)C1 (centres unmarked)	4060
CC(C)(C)S(=O)(=O)Nc1ccc(Nc2nc(NC3CCNCC3)nc3sccc23)cc1	7400
CN1CCC(Nc2nc(-n3ccc(C(=O)NC4CC4)c3)c3ccsc3n2)CC1 [drawing 230]	2200
O=C(NC1CC1)c1ccn(-c2nc(NC3CCNCC3)nc3sccc23)c1 [drawing 229]	1830
CC(C)(C)S(=O)(=O)Nc1cccc(Nc2nc(NCC3CCNCC3)nc3sccc23)c1 [drawing 220]	2670
CN1CCC(Nc2nc(Nc3ccc4c(c3)N(S(=O)(=O)C(C)(C)C)CC4)c3sccc3n2)CC1	2110
CC(C)(C)S(=O)(=O)N1CCc2ccc(Nc3nc(Nc4cccnc4)nc4c3COC4)cc21	3610

Other lines, results leading:

IC50 [nM]	SMILES
200	CNCCCOc1ccc(Nc2ncc3ccn(-c4cccc(NS(=O)(=O)C(C)(C)C)c4)c3n2)cc1F [drawing 466]
180	CN1CCC(Nc2nc(Nc3ccc(Cl)c(NS(=O)(=O)C(C)(C)C)c3)c3ccsc3n2)CC1
220	CN1CCC(Nc2nc(Nc3ccc4c(c3)N(S(=O)(=O)C(C)(C)C)CC4)c3ccsc3n2)CC1 [drawing 185]
1100	CNCCNc1ncc2cc(-c3cccc(-c4c(C)noc4C)c3)ccc2n1
376	CN1CCC(Nc2nc(Nc3cccc(NS(=O)(=O)C(C)(C)C)c3)c3ccsc3n2)CC1
155	Cc1cnc(Nc2ccc(N3CCN(C)CC3)c(F)c2)nc1Nc1ccc2c(c1)N(S(=O)(=O)C(C)(C)C)CC2 [drawing 235]
1700	CN1CCN(c2ccc(Nc3ncc4ccn(-c5ccc(Cl)c(NS(=O)(=O)C6CC6)c5)c4n3)cc2)CC1
208	CC(C)(C)S(=O)(=O)Nc1cc(-n2ccc3cnc(Nc4ccc(N5CCNCC5)cc4)nc32)ccc1F
581	CN1CCC(c2ccc(Nc3ncc4ccn(-c5cccc(NS(=O)(=O)C(C)(C)C)c5)c4n3)cc2)CC1
526	CN1CCN(c2ccc(Nc3nc4c(c(Nc5cccc(NS(=O)(=O)C(C)(C)C)c5)n3)COC4)cc2)CC1 [drawing 188]
1580	CC(C)(C)S(=O)(=O)N1CCc2ccc(Nc3nc(NC4CCNCC4)nc4c3COC4)cc21
1780	O=C1NCCc2c1ccn2-c1cnc(Nc2ccccc2)nc1
194	CC(C)(C)S(=O)(=O)Nc1cccc(Nc2nc(NC3CCNCC3)nc3sccc23)c1 [drawing 237]
318	Cc1ccc(Nc2nc(NC3CCNCC3)nc3sccc23)cc1NS(=O)(=O)C(C)(C)C
609	CN1CCN(c2ccc(Nc3nc(Nc4cccc(NS(=O)(=O)C(C)(C)C)c4)c4ccsc4n3)cc2)CC1 [drawing 153]
242	CN1CCN(c2ccc(Nc3ncc4ccn(-c5cccc(NS(=O)(=O)C(C)(C)C)c5)c4n3)cc2)CC1 [drawing 275]
1340	Cc1cnc(NC2CCN(C)CC2)nc1Nc1cccc(NS(=O)(=O)C(C)(C)C)c1
337	CNCCCOc1ccc(Nc2ncc3ccn(-c4cccc(NS(=O)(=O)C(C)(C)C)c4)c3n2)cc1F [drawing 448]
407	CN1CCC(NC(=O)c2ccc(Nc3ncc4ccn(-c5cccc(NS(=O)(=O)C(C)(C)C)c5)c4n3)cc2)CC1
94	CC(C)(C)S(=O)(=O)Nc1cccc(Nc2nc(NC3CCNCC3)nc3sccc23)c1 [drawing 151]
640	CC(C)(C)S(=O)(=O)N1CCc2ccc(Nc3nc(NC4CCNCC4)nc4sccc34)cc21
206	Cc1ccc(Nc2nc(NC3CCN(C)CC3)nc3sccc23)cc1NS(=O)(=O)C(C)(C)C
608	CC(C)(C)S(=O)(=O)Nc1cccc(Nc2nc(NC3CCNCC3)nc3ccsc23)c1
750	CC(C)(C)S(=O)(=O)Nc1cccc(-n2ccc3cnc(Nc4ccc5c(c4)CCN4CCNCC54)nc32)c1 (centres unmarked)
989	COc1cc(Nc2ncc3ccn(-c4ccc(F)c(NS(=O)(=O)C5CC5)c4)c3n2)ccc1N1CCN(C)CC1
344	CC(C)(C)S(=O)(=O)Nc1cccc(Nc2nc(NC3CCNCC3)nc3sccc23)c1 [drawing 159]
